Reference: patent publication US20240316038A1, “APOL1 INHIBITORS AND METHODS OF USE” (Maze Therapeutics, Inc., priority 2021, published 2024)

What was measured:
APOL1 G2 [1] = target: T1, APOL1 G2 (Homo sapiens, UniProt O14791, DEL388-389); test: APOL1 calcium transport inhibition assay (GCaMP6f calcium influx, FLIPR) in HEK T-REx/GCaMP6f/APOL1 G2 K6.3 cells; assay type: cell-based; conditions: inhibition of APOL1-mediated calcium influx; geometric mean of at least 2 assay runs, † = single assay run (technical duplicate)
T1 construct: expressed in transfected cells; host or cells: HEK293 T-REx clonal lines: HEK T-REx/GCaMP6f/APOL1 G2 K6.3 in A1, HEK293/T-REx APOL1 G2/clone #2 in A2
T1 sequence (O14791 with tags, fused parts or gaps DEL388-389): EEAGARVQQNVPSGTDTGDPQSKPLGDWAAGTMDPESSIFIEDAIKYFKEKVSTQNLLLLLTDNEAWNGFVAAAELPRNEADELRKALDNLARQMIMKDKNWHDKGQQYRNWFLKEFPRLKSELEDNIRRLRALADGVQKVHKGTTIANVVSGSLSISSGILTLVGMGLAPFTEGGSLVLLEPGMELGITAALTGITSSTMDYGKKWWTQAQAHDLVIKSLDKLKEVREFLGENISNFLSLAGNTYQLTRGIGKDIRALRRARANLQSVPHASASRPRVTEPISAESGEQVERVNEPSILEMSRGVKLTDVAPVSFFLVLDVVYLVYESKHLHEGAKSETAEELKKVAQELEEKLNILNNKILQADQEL
Procedure: A HEK293 clonal cell line was generated to stably express GCaMP6f, a genetically encoded calcium indicator, and inducibly express APOL1 G2 (HEK T-REx/GCaMP6f/APOL1 G2 K6.3). Cells were maintained in the following standard complete medium: DMEM with 4.5 g/L glucose and sodium pyruvate (BioWhittaker, Lonza, BE12-614F), supplemented with 10% FBS Performance Plus (Gibco, 16000044), 1% penicillin-streptomycin (BioWhittaker, DE17-602E), 2 mM ultraglutamine-1 (BioWhittaker cat. BE 17-605/U1), 50 μg/mL Zeocin (InvivoGen, ant-zn), 2.5 μg/mL Blasticidin (InvivoGen, ant-bl-5), and 25 μg/mL Hygromycin (InvivoGen, ant-hg). Standard propagation conditions consisted of plating 9×10^6, 4×10^6, 2×10^6 cells in a T225 flasks to be processed after 2, 3, or 4 days, respectively.
A source plate was generated containing 20 serially diluted compounds in DMSO (duplicate 8-point dose response). Next, 0.8 μL of compounds were transferred from the source plate to a destination plate prefilled with 79.2 μL of Ca^2+ free Tyrode's buffer (130 mM NaCl, 5 mM KCl, 1 mM MgCl2, 5 mM NaHCO3, 20 mM HEPES at pH 7.4). The destination plate was placed on a plate shaker (5 seconds at 2000 rpm) to mix. […] All transfer and mixing steps were conducted with an CyBi®-Well dispenser.
Cells were split by gently washing with DPBS (Euroclone, ECB4004L), followed by a 5-minute incubation (humidified, 37° C. with 5% CO2) with trypsin-EDTA solution (Euroclone, ECB3052D). Detached cells were diluted with standard complete medium without selective agents, counted, and plated in a 384 MTP microplate (GR4332CPL, Twin Helix) (10,000 cells/well in 25 μl/well) using a MATRIX WellMate dispenser. Plates were placed into a humidified incubator (37° C. with 5% CO2) overnight. The following day, 20 μL of doxycycline (Sigma, D9891) at 20 ng/mL in standard complete medium was added to cells with a CyBi @Drop dispenser to induce APOL1 G2 expression. After a 6-hour incubation (humidified, 37° C. with 5% CO2), cells were washed 3 times with Ca^2+ free Tyrode's Buffer (130 mM NaCl, 5 mM KCl, 1 mM MgCl2, 5 mM NaHCO3, 20 mM HEPES at pH 7.4) using a BIOTEK Microplate washer, such that 10 μL of buffer remained in each well after the final wash. Assay plates were then stored at room temperature for 10 minutes. Next, 10 μL of diluted compounds were transferred to the assay plate from the 2× compound plate using a CyBi®-Well dispenser. Compound incubation was then carried out at room temperature for 10 minutes. The assay plate was transferred to the […] and 20 μL of 10 mM Ca^2+ (final concentration=5 mM) Tyrode's buffer was injected.
Table B1 below summarizes the data from this experiment. Unless otherwise specified, AC50 and values are reported as the geometric mean of at least 2 assay runs on separate days. Each run represents the average of a technical replicate, where each compound was assayed twice in the same plate. A superscript † symbol indicates a value from the average of a technical replicate from a single assay run, where each compound was assayed twice in the same plate.
The AC50 values in Table B1 below reflect the compound's ability to prevent calcium influx by inhibiting APOL1. […] Compounds in Table B1 are referred to by the corresponding Compound Number in Table 1, which is also referred to in the synthetic examples. When one or more of the numbered compounds are identified by stereochemistry (for example, (R)- or (S)—), the specific stereoisomer for which data is provided in Table B1 may be identified by the elution order of such compound as described in the synthetic examples. To illustrate, Compound 2 is the first-eluting enantiomer of step 4 of Example 1 and Compound 3 is the second-eluting enantiomer of step 4 of Example 1. Further, by way of illustration, Compound 27 is the first-eluting enantiomeric mixture in step 4 of Example 7 and Compound 28 is the second-eluting enantiomeric mixture in step 4 of Example 7. […]

APOL1 G2 [2] = target: T1, APOL1 G2; test: Rescue of HEK293 cell death caused by overexpression of APOL1 (CellTiter-Glo luminescence), HEK293/T-REx APOL1 G2/clone #2; assay type: cell-based; conditions: reversal of cell death caused by overexpression of APOL1; geometric mean of at least 2 assay runs, † = single assay run (technical duplicate)
Procedure: A HEK293 clonal cell line overexpressing APOL1 G2 (HEK293/T-REx APOL1 G2/clone #2) was maintained in 1×DMEM-GlutaMax (Gibco, 10569-010) media with 10% tetracycline-free FBS (Takara Bio USA, 631101), 5 μg/mL Blasticidin (Gibco, A1113903), and 100 μg/mL Zeocin (Invitrogen, R25001) in T75 flasks. In preparation for the assay, this media was aspirated and 2 mL of prewarmed TrypLE Express (Gibco, 12605-010) was added to a flask to detach cells. The flask was then incubated (humidified, 37° C. with 5% CO2) for 3-5 minutes. Afterwards, 8 mL of prewarmed cell assay media (lx DMEM-GlutaMax media with 10% tetracycline-free FBS) was added to the trypsinized cells. The suspension was gently mixed, and cells were counted using a Countess Cell Counting Chamber (Invitrogen). The suspension was diluted using cell assay media to generate a working stock solution (166,667 cells/mL). Using a MultiDrop Combi (Thermo Electron Corp), 30 μL (final cell density=5,000 cells/well) of the working stock solution was dispensed into each well of white 384-well assay ready plates (Nunc™, 164610) containing 6 ng/mL doxycycline, to induce APOL1 expression, and compound. All compounds were plated in a duplicate 8-point dilution series that consisted of 3-fold stepwise dilutions (0.5% DMSO final). Assay plates were incubated (humidified, 37° C. with 5% CO2) for 17 hours. After the incubation, the plates were equilibrated at room temperature for 1 hour. Next, 15 μl of CellTiter-Glo® reagent (Promega, G7570) was added to each well using a MultiDrop Combi. Plates were placed on an orbital shaker (500 rpm) for 5 minutes to induce cell lysis and then incubated at room temperature for 10 minutes. Luminescence was measured on an Envision plate reader. Collaborative Drug Discovery software was utilized for graphing data. Plots were generated using a four parameter logistic curve fit.
Table B2 below provides the results from this experiment. Unless otherwise specified, EC50 values are reported as the geometric mean of at least 2 assay runs on separate days. Each run represents the average of a technical replicate, where each compound was assayed twice in the same plate. A superscript t symbol indicates a value from the average of a technical replicate from a single assay run, where each compound was assayed twice in the same plate. Compounds in Table B2 are referred to by the corresponding Compound Number in Table 1, which is also referred to in the synthetic examples. When one or more of the numbered compounds are identified by stereochemistry (for example, (R)- or (S)—), the specific stereoisomer for which data is provided in Table B2 may be identified by the elution order of such compound as described in the synthetic examples. To illustrate, Compound 2 is the first-eluting enantiomer of step 4 of Example 1 and Compound 3 is the second-eluting enantiomer of step 4 of Example 1. Further, by way of illustration, Compound 27 is the first-eluting enantiomeric mixture in step 4 of Example 7 and Compound 28 is the second-eluting enantiomeric mixture in step 4 of Example 7. Then, Compound 27 is separated into Compound 29 (the first-eluting enantiomer) and Compound 30 (the second-eluting enantiomer) in Example 8, and Compound 28 is separated into Compound 31 (the first-eluting enantiomer) and Compound 32 (the second-eluting enantiomer) in Example 8. Absolute stereochemistry of such compounds may be identified by methods known in the art.
Rescue EC50 values reported in Table B2 below represent the half-maximal effective concentration for reversal of cell death caused by overexpression of APOL1.

Row | Structure (SMILES) | AC50 (APOL1 G2 [1]) | EC50 (APOL1 G2 [2])
1 | CS(=O)(=O)c1ccc(OCC2CN(CCc3cccc(Cl)c3)CCC2O)cc1 (racemic) [Compound 27, rac-trans or cis-1-(3-chlorophenethyl)-3-((4-(methylsulfonyl)phenoxy)methyl)piperidin-4-ol] | 1500 nM | 2130 nM
2 | C[C@@H]1CN(CCc2cccc(Cl)c2)C[C@H]1COc1ccc(S(C)(=O)=O)cc1 (racemic) [Compound 52, rac-trans-1-(3-chlorophenethyl)-3-methyl-4-((4-(methylsulfonyl)phenoxy)methyl)pyrrolidine] | 79 nM | 124 nM
3 | COCCS(=O)(=O)c1ccc(OC[C@H]2CN(CCc3cccc(Cl)c3)C[C@@H]2C)cc1 (racemic) [Compound 109, rac-trans-1-[2-(3-chlorophenyl)ethyl]-3-{[4-(2-methoxyethane-sulfonyl)phenoxy]methyl}-4-methylpyrrolidine] | < 105 nM | 500 nM
4 | C[C@@H]1CN(CCc2cccc(Cl)c2)C[C@@H]1COc1ccc(S(C)(=O)=O)cc1 (racemic) [Compound 150, rac-cis-1-[2-(3-chlorophenyl)-ethyl]-3-[(4-methanesulfon-ylphenoxy)meth-yl]-4-methyl-pyrrolidine] | 721 nM | 1470 nM
5 | CC1(O)CN(CCc2cccc(Cl)c2)CC1COc1ccc(S(C)(=O)=O)cc1 (racemic) [Compound 208, rac-trans-1-[2-(3-chlorophenyl)ethyl]-4-[(4-methanesulfonylphenoxy)methyl]-3-methylpyrrolidin-3-ol] | < 420 nM | 3570 nM
6 | CS(=O)(=O)c1ccc(OCC2CCCCN(CCc3cccc(Cl)c3)C2)cc1 (single isomer, unassigned) [Compound 2, (R) or (S)-1-(3-chlorophenethyl)-3-((4-(methylsulfonyl)phenoxy)methyl)azepane] | 1010 nM | 2960 nM
7 | CS(=O)(=O)c1ccc(OCC2(O)CCCN(CCc3cccc(Cl)c3)C2)cc1 (single isomer, unassigned) [Compound 5, (R) or (S)-1-(3-chlorophenethyl)-3-((4-(methylsulfonyl)phenoxy)methyl) piperidin-3-ol] | 10100 nM | 5370 nM

Further lines, with some results ahead:

Row | AC50 (APOL1 G2 [1]) | Structure (SMILES) | EC50 (APOL1 G2 [2])
8 | 2000 nM | CS(=O)(=O)c1ccc(OCC2CN(CCc3cccc(Cl)c3)CCC2O)cc1 (racemic) [Compound 28, rac-cis or trans-1-(3-chlorophenethyl)-3-((4-(methylsulfonyl)phenoxy)methyl)piperidin-4-ol] | 2340 nM
9 | 71.2 nM | C[C@H]1CN(CCc2cccc(Cl)c2)C[C@@H]1COc1ccc(N(C)S(C)(=O)=O)cc1 (racemic) [Compound 45, rac-trans-N-(4-((1-(3-chlorophenethyl)-4-methylpyrrolidin-3-yl)methoxy)phenyl)-N-methylmethanesulfonamide] | < 13.7 nM
10 | < 72.8 nM | C[C@H]1CN(CCc2cccc(Cl)c2)C[C@@H]1COc1ccc(S(=O)(=O)CCCS(C)(=O)=O)cc1 (racemic) [Compound 175, rac-trans-1-[2-(3-chlorophenyl)eth-yl]-3-{[4-(3-methanesulfonylpro-panesulfonyl)phe-noxy]methyl}-4-methylpyrrolidine] | 143 nM
11 | < 236 nM | C[C@@]1(O)CN(CCc2cccc(Cl)c2)C[C@H]1COc1ccc(S(C)(=O)=O)cc1 (racemic) [Compound 205] | 1590 nM
12 | 205 nM | CS(=O)(=O)c1ccc(OCC2CCCCN(CCc3cccc(Cl)c3)C2)cc1 (single isomer, unassigned) [Compound 3, (S) or (R)-1-(3-chlorophenethyl)-3-((4-(methylsulfonyl)phenoxy)methyl)azepane] | 295 nM
13 | 942 nM | CS(=O)(=O)c1ccc(OCC2(O)CCCN(CCc3cccc(Cl)c3)C2)cc1 (single isomer, unassigned) [Compound 6, (S) or (R) -1-(3-chlorophenethyl)-3-((4-(methylsulfonyl)phenoxy)methyl) piperidin-3-ol] | 495 nM
